Measurements taken from patent US20210100905A1, “APPLICATION OF COMPOUND OR TRADITIONAL CHINESE MEDICINE EXTRACT IN PREPARATION OF NUCLEIC ACID DELIVERY AGENT, AND RELATED PRODUCTS” (INSTITUTE OF BASIC MEDICAL SCIENCES CHINESE ACADEMY OF …, priority 2018, published 2021).

How the values were obtained:
[1] = test system: A549 cell line; assay: Fluorescence in situ hybridization (FISH) of small RNA; type: cell-based, human; settings: FIG. 12
Procedure: 3.3.3 Fluorescence in Situ Hybridization (FISH) of Small RNA
2) Fix in 4% paraformaldehyde (500 μl/well, prepared in PBS buffer) at room temperature for 20 min.
4) PBS was removed, and cells were permeabilized with PK (proteinase K) buffer at room temperature for 10 min.
9) The culture plate was placed in a hybridization cassette in hybridization buffer (50% formamide, 5×SSC, 5×Denharts, 250 μg/mL yeast RNA, 500 μg/mL herring sperm DNA) and pre-incubated at room temperature for 1 hour.
10) Add RNA probes (HJT-sRNA-m7 probe: 5′-[…]-3′ (SEQ ID NO: 27), Scrambled probe: 5′-[…]-3′ (SEQ ID NO: 28), U6 probe: 5′-TTTGCGTGTCATCCTTGCG-3′ (SEQ ID NO: 29)) to the hybridization buffer (the concentration of RNA probes was 0.1-0.2 ng/μl), denature at 85° C. for 5 min, and quickly place it on ice. […]
Mixtures of soybean PC, lipid No. 11 (18:0/18:2) and lipid No. 12 (16:0/18:2), and various small RNA(see below Table 3) were prepared by the reverse evaporation method and then added into A549 cell line (the final concentration of sRNA was 200 nM); the negative control group (control) was directly added with the same concentration of sRNA; the positive control group (RNAimax) was transfected with Lipofectamine RNAimax (transfection reagent 6 μ/well). The abundance of sRNA in the cells was detected by Taqman probe after 3 hours, and the relative expression level of sRNA was calculated by 2-ΔCt method.

[2] = Luciferase reporter with 3′UTR of target gene after lipid-mediated small RNA delivery; type: cell-based; settings: FIG. 13; mutated 3′UTR
[3] = test system: Luciferase with the wild-type 3′UTR in the target gene; assay: as above; type: cell-based; settings: FIG. 13; wild-type 3′UTR
[4] = test system: MRC-5 cell (lung fibroblast); assay: In vitro delivery of lipid nucleic acid mixture, RT-qPCR of intracellular small RNA; type: cell-based; settings: for delivery of double-stranded RNA into MRC-5 cells (real-time PCR) / delivery of HJT-sRNA-m7 single-stranded RNA into MRC-5 cells (real-time PCR): single lipid; for delivery of double-stranded RNA into MRC-5 cells (real-time PCR): boiling (heating) method, FIGS. 77, 91; for delivery of HJT-sRNA-m7 single-stranded RNA into MRC-5 cells (real-time PCR): boiling method, FIGS. 78, 92, 103
How it was run: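 A549 or MRC-5 cells seeded overnight, then given lipid–HJT-sRNA-m7 mixture (ether-evaporation or heated chloroform preparation) at 100 nM sRNA final for 12–24 h. After PBS washes, intracellular sRNA measured by stem-loop RT and SYBR Green qPCR; relative level by 2-ΔCt method with U6 reference.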

Compound | localization of delivered nucleic acid (FISH) [1] | action on Luciferase with mutated 3′UTR [2] | relative expression level of Luciferase with wild-type 3′UTR [3] | amount of HJT-sRNA-m7 that entered the cells (RT-qPCR) ([4]; Example 2-1, FIG. 33, double-stranded, 100 nM, 24 hours, boiling 100° C. 30 min, No. 38 series) | delivery effect relative to that of RNAiMAX (real-time PCR) ([4]; double-stranded RNA, heating method, FIG. 91) | delivery of double-stranded RNA into MRC-5 cells (real-time PCR) [4] | delivery of HJT-sRNA-m7 single-stranded RNA into MRC-5 cells (real-time PCR) [4] | delivery effect relative to that of RNAiMAX (real-time PCR) ([4]; double-stranded HJT-sRNA-m7, reverse evaporation method, FIG. 77)
CCCCC/C=C\C/C=C\CCCCCCCC(=O)O[C@H](COC(=O)CCCCCCCCCCCCCCCCC)COP(=O)([O-])OCC[N+](C)(C)C [No. 11, trimethyl(2-{[(2R)-2-[(9Z, 12Z)-octadeca-9,12-dienoyloxy]-3-(octadecanoyloxy)propyl-phosphonato]oxy}ethyl) azanium] | entered into cytoplasm and were primarily localized in cytoplasm | did not act on the mutated 3′UTR of their target genes | reduced the relative expression level of the Luciferase with the wild-type 3′UTR in the target gene |  |  |  |  | 
CCCCC/C=C\C/C=C\CCCCCCCC(=O)O[C@H](COC(=O)CCCCCCCCCCCCCCC)COP(=O)([O-])OCC[N+](C)(C)C [No. 12, (2-{[(2R)-3-(hexadecanoyloxy)-2-[(9Z,12Z)-octadeca-9,12-dienoyloxy]propylphosphonato]oxy}ethyl) trimethylazanium] | entered into cytoplasm and were primarily localized in cytoplasm | did not act on the mutated 3′UTR of their target genes | reduced the relative expression level of the Luciferase with the wild-type 3′UTR in the target gene |  |  |  |  | 
CCCCCC/C=C\CCCCCCCC(=O)O[C@H](COC(=O)CCCCCCCCCCCCCCC)COP(=O)(O)OCCN [No. 38, (2-aminoethoxy) [(2R)-2-[(9Z)-hexadec-9-enoyloxy]-3-(hexadecanoyloxy)propoxy] phosphinic acid] |  |  |  | effectively delivered nucleic acids into MRC-5 cells, showing an effect close to the transfection reagent RNAiMAX | about twice | delivered double-stranded RNA into A549 and MRC-5 cells | the efficiency of delivery was much higher than that of RNAiMAX | 
CCCCCCCCCCCCCCCCCCC[C@@H](O)[C@@H](N)CO [No. 41, Sphinganine (d22:0)] |  |  |  |  |  | delivered double-stranded RNA into MRC-5 cells | delivered HJT-sRNA-m7 single-stranded RNA into A549 and MRC-5 cells | significantly higher than that of RNAiMAX
